“And” between values parts separate entries of the source, which are not always exact repeats. Equal values may be shown once.
Test system: adult subjects with Major Depressive Disorder
Assay: Phase 3 open-label 1-year study: need for re-treatment (number of and time to re-treatments)
Assay type: in vivo, human
Excerpt: Secondary Objective: To assess the need for re-treatment with Compound (1) following initial treatment in adults with MDD currently experiencing an MDE over a 1-year period, and to assess the response of initial treatment and re-treatment(s) with Compound (1) following an initial 2-week treatment period in adults with MDD currently experiencing an MDE over a 1-year period.
Secondary Endpoints: The need for re-treatment with Compound (1) as assessed by: time to first re-treatment (Kaplan-Meier curves), number of subjects achieving the requirements for re-treatment, number of re-treatment cycles for each subject, the response of initial treatment and/or re-treatment as assessed by: change from baseline in the 17-item Hamilton Rating Scale for Depression (HAM-D) total score at the end of each 14-day treatment (initial and/or re-treatment) period, HAM-D response at the end of each 14-day treatment (initial and/or re-treatment) period, defined as a ≥50% reduction in HAM-D score from baseline, HAM-D remission at the end of each 14-day treatment (initial and/or re-treatment) period, defined as HAM-D total score≤7, Clinical Global Impression-Improvement (CGI-I) response, defined as “much improved” or “very much improved”, at the end of each 14-day treatment (initial and/or re-treatment) period, change from baseline in Clinical Global Impression-Severity (CGI-S) score at the end of each 14-day treatment (initial and/or re-treatment) period.
Subjects who continued in the Observation Period were monitored remotely via PHQ-9 assessment every two weeks. If PHQ-9 score was >=10 at any assessment, PHQ-9 assessment was switch to every week until the score came down below 10 or the subject was dosed with Compound (1) in a subsequent cycle, whichever was earlier. A subject was to come back to the site for HAM-D assessment within a week of PHQ-9 score >=10; if the HAM-D total score >=20 and at least 56 days had elapsed since the last dose of Compound (1), another dosing cycle of Compound (1) were to start. If any of these criteria were not met, the subject couldn't be treated with Compound (1) at that time. Without the trigger of PHQ-9>=10 the subject was to have a clinic visit every 8 weeks. A subject could have at most 5 cycles of treatment within a year. FIG. 2 is a depiction of the eligibility criteria of the study.
The cohorts pertaining to the different doses that the subjects received were defined as following: • 50 mg cohort: This cohort includes subjects who have initiated treatment with 50 mg and received re-treatment with 50 mg only. • 30 mg cohort: This cohort includes subjects who have initiated treatment with 30 mg regardless of the dose they have received in re-treatments. • Low dose cohort: This cohort includes subjects who have initiated treatment with 30 mg and received re-treatment with 30 mg only. • Dose switch cohort: This cohort includes subjects who have received initial treatment with 30 mg and at least one subsequent re-treatment with 50 mg. • Study Period X: starts on the date of the first dose of Compound (1) in cycle X and goes up to one day prior to the first dose of the next cycle. In some embodiments, X is any number from 1 to 5. • Treatment Period X: starts on the date of the first dose of Compound (1) in cycle X and goes up to one day after the last dose in cycle X. In some embodiments, X is any number from 1 to 5. • Treatment Cycle X: starts on the date of the first dose of Compound (1) in cycle X and goes up to 14 days after the last dose in cycle X. The treatment cycles may be denoted as C1-C5. • Observation period X: starts the day after Treatment Cycle X ends and goes up to one day prior to the start of next treatment cycle. In some embodiments, X is any number from 1 to 5.
Analysis Sets: The safety set was defined as all subjects who were administered study drug. The period-specific safety set includes subjects in the safety set who were administered study drug in the corresponding treatment cycle. […]

[1] = 50 mg Cohort (N = 146), Examples 2-3 cut-off
[2] = 50 mg Cohort FAS (146), one-year follow-up (Example 4)
[3] = 50 mg Cohort, Examples 2-3 cut-off
[4] = Cycle 3, 50 mg Cohort (FAS), 1 subject

For C[C@@]1(O)CC[C@H]2[C@H](CC[C@@H]3[C@@H]2CC[C@]2(C)[C@@H](C(=O)Cn4cc(C#N)cn4)CC[C@@H]32)C1 [Compound (1), 1-(2-((3R,5R,8R,9R,10S,13S,14S,17S)-3-hydroxy-3,13-dimethylhexadecahydro-1H-cyclopenta[a]phenanthren-17-yl)-2-oxoethyl)-1H-pyrazole-4-carbonitrile], the “Average (range) number of re-treatments per subject over 1-year follow-up” value (30 mg Cohort) was 1.2 (0-4) and 1.2, the “Average total number of treatments per subject” value (30 mg Cohort) was 2.2 and the “Dosed in at least 1 re-treatment cycle, % of eligible” value (30 mg Cohort (472 eligible)) was 279 (59.1%). The “Qualified to be retreated in at least 1 more cycle (HAM-D total score >= 20), % of eligible” value (30 mg Cohort (472 eligible)) was 305 (64.6%), the “FAS Subjects Dosed in C2, n (%) of FAS” value (30 mg Cohort Overall) was 279 (57.1%) and the “FAS Subjects dosed in C3, n (%) of FAS” value (30 mg Cohort Overall) was 154 (31.5%). For the same compound, the “FAS Subjects dosed in C4, n (%) of FAS” value (30 mg Cohort Overall) was 96 (19.6%), the “FAS Subjects dosed in C5, n (%) of FAS” value (30 mg Cohort Overall) was 43 (8.8%) and the “Subjects with No re-treatment (Cycle 1), n (%) of FAS” value (30 mg cohort (N = 489)) was 210 (42.9%). For the same compound, the “Subjects with Only 1 re-treatment (Cycle 2), n (%) of FAS” value (30 mg cohort (N = 489)) was 125 (25.6%), the “Subjects with Only 2 re-treatment (Cycle 3), n (%) of FAS” value (30 mg cohort (N = 489)) was 58 (11.9%) and the “Subjects with Only 3 re-treatment (Cycle 4), n (%) of FAS” value (30 mg cohort (N = 489)) was 53 (10.8%). The “Subjects with Only 4 re-treatment (Cycle 5), n (%) of FAS” value (30 mg cohort (N = 489)) was 43 (8.8%) and 43 8.8%), the “Dosed in at least 1 re-treatment cycle, % of eligible” value (50 mg Cohort (122 eligible)) was 26 (21.3%) and the “Qualified to be retreated in at least 1 more cycle (HAM-D total score >= 20), % of eligible” value (50 mg Cohort (122 eligible)) was 36 (29.5%). The “Subjects with No re-treatment (Cycle 1), n (%) of FAS” value [1] was 120 (82.2%), the “Subjects with Only 1 re-treatment (Cycle 2), n (%) of FAS” value [1] was 25 (17.1%) and the “Subjects with Only 2 re-treatment (Cycle 3), n (%) of FAS” value [1] was 1 (0.7%). The “Subjects who received 1 treatment course in total” value [2] was 54.8%, the “Subjects who received 2 treatment courses in total” value [2] was 24.7% and the “Subjects who received 3 treatment courses in total” value [2] was 10.3%. For the same compound, the “Subjects who received 4 treatment courses in total” value [2] was 6.8%, the “Subjects who received 5 treatment courses in total” value [2] was 3.4% and the “Subjects who received at most one additional treatment cycle” value [2] was 79.5%. For the same compound, the “FAS Subjects Dosed in C2, n (%) of FAS” value [3] was 26 (17.8%), the “FAS Subjects dosed in C3, n (%) of FAS” value [3] was 1 (0.7%) and the “Proportion with zero or at most 1 additional treatment cycle, by use of antidepressant therapy at baseline” value (50 mg Cohort, one-year follow-up (Example 4)) was “similar”. For the same compound, the “n/N: FAS subjects eligible and dosed in Cycle X / eligible for dosing in Cycle X” value (Cycle 2, 50 mg Cohort) was 26/122, the “Time to re-treatment since last dose in previous cycle, Mean (SD)” value (“Time to re-treatment since last dose … (SD)” for short) (Cycle 2, 50 mg Cohort (FAS)) was 70.5 (18.52) Days and the “Time to re-treatment since last dose in previous cycle, Median” value (from here on “Time … Median”) (Cycle 2, 50 mg Cohort (FAS)) was 62.5 days. The “Time to re-treatment since last dose in previous cycle, Min - Max” value (from here on “Time to re-treatment since last dose … - Max”) (Cycle 2, 50 mg Cohort (FAS)) was 58 to 122 days, the “n/N: FAS subjects eligible and dosed in Cycle X / eligible for dosing in Cycle X” value (Cycle 2, Dose Switch) was 80/80 and the “Time to re-treatment since last dose … (SD)” value (Cycle 2, Dose Switch (FAS)) was 116.5 (70.26) Days. For the same compound, the “Time … Median” value (Cycle 2, Dose Switch (FAS)) was 91 days, the “Time to re-treatment since last dose … - Max” value (Cycle 2, Dose Switch (FAS)) was 58 to 318 days and the “n/N: FAS subjects eligible and dosed in Cycle X / eligible for dosing in Cycle X” value (Cycle 2, Low Dose) was 199/392. For the same compound, the “Time to re-treatment since last dose … (SD)” value (Cycle 2, Low Dose (FAS)) was 99.5 (52.15) Days, the “Time … Median” value (Cycle 2, Low Dose (FAS)) was 78 days and the “Time to re-treatment since last dose … - Max” value (Cycle 2, Low Dose (FAS)) was 58 to 297 days. For the same compound, the “n/N: FAS subjects eligible and dosed in Cycle X / eligible for dosing in Cycle X” value (Cycle 3, 50 mg Cohort) was 1/4, the “Time to re-treatment since last dose … (SD)” value [4] was 58 (NA) Days and 58.0 (NA), 58.0, Days and the “Time … Median” value [4] was 58 Days and 58.0 (NA), 58.0, Days. The “Time to re-treatment since last dose … - Max” value [4] was 58-58 Days, the “n/N: FAS subjects eligible and dosed in Cycle X / eligible for dosing in Cycle X” value (Cycle 3, Dose Switch) was 71/76 and the “Time to re-treatment since last dose … (SD)” value (Cycle 3, Dose Switch (FAS)) was 92.5 (34.44) Days. For the same compound, the “Time … Median” value (Cycle 3, Dose Switch (FAS)) was 79 days, the “Time to re-treatment since last dose … - Max” value (Cycle 3, Dose Switch (FAS)) was 58 to 214 days and the “n/N: FAS subjects eligible and dosed in Cycle X / eligible for dosing in Cycle X” value (Cycle 3, Low Dose) was 83/166. The “Time to re-treatment since last dose … (SD)” value (Cycle 3, Low Dose (FAS)) was 87.2 (34.97) Days, the “Time … Median” value (Cycle 3, Low Dose (FAS)) was 72 days and the “Time to re-treatment since last dose … - Max” value (Cycle 3, Low Dose (FAS)) was 52 to 217 days. For the same compound, the “n/N: FAS subjects eligible and dosed in Cycle X / eligible for dosing in Cycle X” value (Cycle 4, Dose Switch) was 53/63, the “Time to re-treatment since last dose … (SD)” value (Cycle 4, Dose Switch (FAS)) was 69.9 (13.40) Days and the “Time … Median” value (Cycle 4, Dose Switch (FAS)) was 66 days. For the same compound, the “Time to re-treatment since last dose … - Max” value (Cycle 4, Dose Switch (FAS)) was 57 to 120 days, the “n/N: FAS subjects eligible and dosed in Cycle X / eligible for dosing in Cycle X” value (Cycle 4, Low Dose) was 43/74 and the “Time to re-treatment since last dose … (SD)” value (Cycle 4, Low Dose (FAS)) was 72.1 (17.67) Days. The “Time … Median” value (Cycle 4, Low Dose (FAS)) was 65 days, the “Time to re-treatment since last dose … - Max” value (Cycle 4, Low Dose (FAS)) was 57 to 113 days and the “n/N: FAS subjects eligible and dosed in Cycle X / eligible for dosing in Cycle X” value (Cycle 5, Dose Switch) was 23/45. The “Time to re-treatment since last dose … (SD)” value (Cycle 5, Dose Switch (FAS)) was 61.4 (6.24) Days.
